From patent US5945566A, “Amino compounds of 6,7,8,9-tetrahydro-cyclopenta[a]naphthalene and of 2,3-dihydro-cyclopenta[e]indene” (Adir et Compagnie, priority 1997, dated 1999)

Experiments:
[1] = target: T1, human dopamine D2 receptor (Homo sapiens, UniProt P14416); assay: human D2 receptor binding ([125I]-iodosulpride, CHO membranes); settings: dissociation constant of radioligand
T1 construct: expressed in transfected cells; membranes
Description: (§1) .check mark. In vitro: human D2 and D3 receptor binding study
(§2) CHO (Chinese Hamster Ovary) cells were transfected in a stable manner by the gene that codes for the human dopamine D2 or D3 receptor according to methods known from the literature. The native cells are deficient in the enzyme DHFR (DiHydroFolate Reductase). The cells are cultured in an incubator at 37° C. in a humid atmosphere of 5% CO2 /95% air. The transfections are carried out using Lipofectin (Gibco). The CHO cells, co-transfected with the human D2 receptor and the gene for resistance to phleomycin, were selected for their resistance to the presence of that antibiotic in the culture medium. The cells transfected with the human D3 receptor were selected in a medium containing no hypoxanthine/thymidine in the presence of methotrexate. […]
(§3) The ranges of concentration of each compound include at least seven points determined in triplicate, each experiment being repeated at least twice.
(§4) The incubation, which lasts for thirty minutes at 30° C., is terminated by means of rapid filtration over a Brandle apparatus, followed by three consecutive rinses with Tris-HCl buffer, pH 7.4, containing 120 mM NaCl. The filters recovered are then counted using a gamma counter. […]

[2] = target: T2, human dopamine D3 receptor (Homo sapiens, UniProt P35462); assay: human D3 receptor binding ([125I]-iodosulpride, CHO membranes)
T2 construct: expressed in transfected cells; membranes
T2 sequence (P35462 whole entry): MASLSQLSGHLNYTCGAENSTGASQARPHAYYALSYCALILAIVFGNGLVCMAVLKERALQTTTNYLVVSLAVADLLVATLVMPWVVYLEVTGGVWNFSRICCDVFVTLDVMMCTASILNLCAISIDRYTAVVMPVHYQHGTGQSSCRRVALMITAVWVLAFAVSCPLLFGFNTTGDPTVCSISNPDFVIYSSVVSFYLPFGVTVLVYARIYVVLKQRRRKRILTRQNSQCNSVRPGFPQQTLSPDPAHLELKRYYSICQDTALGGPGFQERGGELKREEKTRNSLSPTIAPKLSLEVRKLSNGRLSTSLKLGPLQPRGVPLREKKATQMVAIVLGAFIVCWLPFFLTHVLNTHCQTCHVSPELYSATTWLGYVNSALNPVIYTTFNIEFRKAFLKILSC
Description: as §1, §2, §3, §4

T1 sequence (P14416 whole entry): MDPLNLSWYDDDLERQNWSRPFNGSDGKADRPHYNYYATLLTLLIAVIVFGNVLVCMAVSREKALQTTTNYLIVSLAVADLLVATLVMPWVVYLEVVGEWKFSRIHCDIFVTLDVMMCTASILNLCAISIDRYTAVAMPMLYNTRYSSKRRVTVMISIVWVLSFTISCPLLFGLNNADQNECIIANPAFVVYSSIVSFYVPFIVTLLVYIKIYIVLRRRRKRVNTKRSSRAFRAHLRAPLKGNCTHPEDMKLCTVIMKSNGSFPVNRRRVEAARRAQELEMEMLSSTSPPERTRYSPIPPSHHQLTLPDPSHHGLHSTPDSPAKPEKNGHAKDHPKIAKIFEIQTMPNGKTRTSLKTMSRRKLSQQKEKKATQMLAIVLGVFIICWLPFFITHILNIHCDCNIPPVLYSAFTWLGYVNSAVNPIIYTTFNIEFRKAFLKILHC

| Ki ([2]; [125I]-iodosulpride 0.2 nM, CHO membranes, pKi = -logKi) [nM] | Molecule | Kd [1] [nM] | Kd ([2]; dissociation constant of radioligand) [nM] |
| --- | --- | --- | --- |
|  | [^125 I]-iodosulpride | 0.5 | 1.31 |
| 10 | CCCN(CCC)C1CCc2c(ccc3c2C(=O)CC3)C1 (racemic) [Example 2, (7R,S)-7-(N,N-Dipropylamino)-6,7,8,9-tetrahydro-cyclopenta[a]-naphthalen-1-one] |  |  |
